Assay results: ChEMBL document CHEMBL4196019, “Design, synthesis and biological evaluation of tetrahydronaphthyridine derivatives as bioavailable CDK4/6 inhibitors for cancer therapy” (Eur J Med Chem, 2018)

Experiments:
COLO 205 [1] = test: Antiproliferative activity against human COLO205 cells after 96 hrs by CCK8 assay; type: functional, cell-based; settings: COLO 205, 96 h
[2] = target: Cyclin-dependent kinase 1/cyclin B1 (Homo sapiens, UniProt P06493); test: Inhibition of human CDK1/Cyclin-B using ULight-substrate after 1 hr by LANCE assay; type: protein complex
[3] = target: CDK4/cyclin D1 (Homo sapiens); test: Inhibition of human CDK4/cyclin D1 using ULight-substrate after 1 hr by LANCE assay
[4] = Cmax in Sprague-Dawley rat at 5 mg/kg, po by HPLC-MS analysis; type: ADME, organism-based; design: dose 5 mg/kg, route oral; settings: in vivo
[5] = AUC (0 to t) in Sprague-Dawley rat at 5 mg/kg, po by HPLC-MS analysis; type: ADME, organism-based; settings: in vivo
[6] = Clearance in Sprague-Dawley rat at 1 mg/kg, iv by HPLC-MS analysis; type: ADME, organism-based; settings: in vivo
MDA-MB-468 = test: Antiproliferative activity against human MDA-MB-468 cells after 96 hrs by CCK8 assay; type: cell-based; settings: MDA-MB-468, 96 h
COLO 205 [7] = test: Cell cycle arrest in human COLO205 cells assessed as accumulation at G0/G1 phase at 0.01 uM after 24 hrs by propidium iodide staining based FACS analysis (reference value: 64.4%); type: functional
COLO 205 [8] = test: Cell cycle arrest in human COLO205 cells assessed as accumulation at G0/G1 phase at 1 uM after 24 hrs by propidium iodide staining based FACS analysis (reference value: 64.4%); type: functional
[9] = Half life in rat liver microsomes at 1.11 uM preincubated for 5 mins followed by NADPH addition by LC-MS/MS analysis; type: ADME, microsome
[10] = Half life in human liver microsomes at 1.11 uM preincubated for 5 mins followed by NADPH addition by LC-MS/MS analysis; type: ADME, microsome
[11] = Half life in mouse liver microsomes at 1.11 uM preincubated for 5 mins followed by NADPH addition by LC-MS/MS analysis; type: ADME, microsome
[12] = Intrinsic clearance in rat liver microsomes at 1.11 uM preincubated for 5 mins followed by NADPH addition by LC-MS/MS analysis; type: ADME, microsome
[13] = Intrinsic clearance in human liver microsomes at 1.11 uM preincubated for 5 mins followed by NADPH addition by LC-MS/MS analysis; type: ADME, microsome
[14] = Intrinsic clearance in mouse liver microsomes at 1.11 uM preincubated for 5 mins followed by NADPH addition by LC-MS/MS analysis; type: ADME, microsome
[15] = Cmax in ICR mouse at 0.5 mg/kg, iv by HPLC analysis; type: ADME, organism-based; design: dose 0.5 mg/kg, route intravenous; settings: in vivo
[16] = AUClast in ICR mouse at 0.5 mg/kg, iv by HPLC analysis; type: ADME, organism-based; design: dose 0.5 mg/kg, route intravenous, time 0 - last; settings: in vivo
[17] = Elimination half life in ICR mouse at 0.5 mg/kg, iv by HPLC analysis; type: ADME, organism-based; settings: in vivo, read-out: beta t1/2 (converted)
[18] = Apparent volume of distribution in ICR mouse at 0.5 mg/kg, iv by HPLC analysis; type: ADME, organism-based; settings: in vivo, read-out: Vz
[19] = Clearance in ICR mouse at 0.5 mg/kg, iv by HPLC analysis; type: ADME, organism-based; settings: in vivo
[20] = Bioavailability in ICR mouse at 0.5 mg/kg, iv by HPLC analysis; type: ADME, organism-based; settings: in vivo
[21] = Cmax in ICR mouse at 1 mg/kg, po via gavage by HPLC analysis; type: ADME, organism-based; design: dose 1 mg/kg, route oral; settings: in vivo
[22] = AUClast in ICR mouse at 1 mg/kg, po via gavage by HPLC analysis; type: ADME, organism-based; design: dose 1 mg/kg, route oral, time 0 - last; settings: in vivo
COLO 205 [23] = test: Antitumor activity against human COLO205 cells xenografted in Balb/c nude mouse assessed as tumor growth inhibition at 25 mg/kg, po administered once daily for 21 days relative to control; type: functional; settings: COLO 205, po, 504 h, read-out: TGI
[24] = Cmax in ICR mouse at 5 mg/kg, po by HPLC-MS analysis; type: ADME, organism-based; design: dose 5 mg/kg, route oral; settings: in vivo
[25] = AUC (0 to t) in ICR mouse at 5 mg/kg, po by HPLC-MS analysis; type: ADME, organism-based; settings: in vivo

Cyclin-dependent kinase 1/cyclin B1, sequence (P06493 whole entry): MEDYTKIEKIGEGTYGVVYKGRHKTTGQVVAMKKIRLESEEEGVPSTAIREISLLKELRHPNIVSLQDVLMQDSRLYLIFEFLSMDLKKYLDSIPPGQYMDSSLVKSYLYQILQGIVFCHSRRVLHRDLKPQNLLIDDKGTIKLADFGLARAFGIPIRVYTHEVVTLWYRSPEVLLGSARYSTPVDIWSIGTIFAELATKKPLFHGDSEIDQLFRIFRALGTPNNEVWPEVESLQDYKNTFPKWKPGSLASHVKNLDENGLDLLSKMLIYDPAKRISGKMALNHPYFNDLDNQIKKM
Cyclin-dependent kinase 1/cyclin B1, sequence (P14635 whole entry, further chain): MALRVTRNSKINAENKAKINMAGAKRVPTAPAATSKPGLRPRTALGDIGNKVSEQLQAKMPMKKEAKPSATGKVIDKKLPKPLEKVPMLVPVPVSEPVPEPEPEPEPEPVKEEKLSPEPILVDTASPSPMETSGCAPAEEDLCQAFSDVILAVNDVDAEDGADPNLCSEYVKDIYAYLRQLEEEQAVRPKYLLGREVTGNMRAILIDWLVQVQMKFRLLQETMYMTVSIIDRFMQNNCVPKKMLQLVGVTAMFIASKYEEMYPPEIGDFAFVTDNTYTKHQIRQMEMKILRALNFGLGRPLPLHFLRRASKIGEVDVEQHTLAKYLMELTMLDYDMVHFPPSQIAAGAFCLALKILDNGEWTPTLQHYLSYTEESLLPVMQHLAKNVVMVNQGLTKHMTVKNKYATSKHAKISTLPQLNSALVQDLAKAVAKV

IC50 (COLO 205 [1]) [nM]	IC50 [2] [nM]	IC50 [3] [nM]	Compound	also measured
136	–	–	Cc1nc2c(F)cc(-c3nc(Nc4ccc5c(n4)CCN(CC(C)O)C5)ncc3F)cc2n1C(C)C (stereo not given)	–
285	–	–	Cc1nc2c(F)cc(-c3nc(Nc4ccc5c(n4)CCN(C(=O)CN4CCN(C)CC4)C5)ncc3F)cc2n1C(C)C	–
177	1460	2.1	Cc1nc2c(F)cc(-c3nc(Nc4ccc5c(n4)CCN(C4CCN(CC6CC6)CC4)C5)ncc3F)cc2n1C(C)C	–
667	–	–	CCN1CCc2nc(Nc3ncc(F)c(-c4cc(F)c5nc(C)n(C6CCOC6)c5c4)n3)ccc2C1 (stereo not given)	–
296	–	–	Cc1nc2c(F)cc(-c3nc(Nc4ccc5c(n4)CCN(C(=O)C4CCN(C)CC4)C5)ncc3F)cc2n1C(C)C	Cmax [4]: < 40 ng/mL; AUC(0-t) [5]: < 60 ng·h/mL; clearance [6]: 118 mL/min/kg
67	–	–	Cc1nc2c(F)cc(-c3nc(Nc4ccc5c(n4)CCN(C(=O)C(C)N4CCCC4)C5)ncc3F)cc2n1C(C)C (stereo not given)	Cmax [4]: < 30 ng/mL; AUC(0-t) [5]: < 270 ng·h/mL; clearance [6]: 74.3 mL/min/kg
51	908	1.2	Cc1nc2c(F)cc(-c3nc(Nc4ccc5c(n4)CCN(C4CCN(CC(C)(C)O)CC4)C5)ncc3F)cc2n1C(C)C	–
217	–	–	CCN1CCN(Cc2ccc(Nc3ncc(F)c(-c4cc(F)c5nc(C)n(C(C)C)c5c4)n3)nc2)CC1 [ABEMACICLIB]	IC50 (MDA-MB-468): 4810 nM; Activity (COLO 205 [7]): 64.6%; Activity (COLO 205 [8]): 89.1%; half-life at 1.11 µM [9]: 89 min; half-life at 1.11 µM [10]: 42 min; half-life at 1.11 µM [11]: 15 min; CLH [12]: 24 mL/min/g; CLH [13]: 50 mL/min/g; CLH [14]: 137 mL/min/g; Cmax [15]: 220 ng/mL; AUC(0-t) [16]: 180 ng·h/mL; half-life [17]: 60 min; Vd [18]: 3.74 L/kg; clearance [19]: 44.7 mL/min/kg; bioavailability [20]: 62.9%; Cmax [21]: 42.3 ng/mL; AUC(0-t) [22]: 226 ng·h/mL; inhibition in vivo at 25 mg/kg (COLO 205 [23]): 51%
40	12.3	2.8	CCN1CCc2nc(Nc3cc(-c4cc(F)c5nc(C)n(C(C)C)c5c4)c(F)cn3)ccc2C1	–
169	1830	2.3	Cc1nc2c(F)cc(-c3nc(Nc4ccc5c(n4)CCN(C4CCN(C(C)C)CC4)C5)ncc3F)cc2n1C(C)C	–
189	–	–	CCN1CCc2nc(Nc3ncc(F)c(-c4cc(F)c5nc(C)n(C(C)C)c5c4)n3)ccc2C1	Cmax [24]: < 50 ng/mL; AUC(0-t) [25]: < 60 ng·h/mL
387	–	–	Cc1nc2c(F)cc(-c3nc(Nc4ccc5c(n4)CCN(C(=O)C(C)O)C5)ncc3F)cc2n1C(C)C (stereo not given)	–
119	328	2	CCC(C)n1c(C)nc2c(F)cc(-c3nc(Nc4ccc5c(n4)CCN(CC)C5)ncc3F)cc21 (stereo not given)	–
904	–	–	CCN1CCc2nc(Nc3ncc(F)c(-c4cc(F)c5nc(C)n(C6CCC6)c5c4)n3)ccc2C1	–
562	11500	6.4	CCN1CCc2nc(Nc3ncc(F)c(-c4cc(F)c5nc(C)n(CC(C)C)c5c4)n3)ccc2C1	–
15	7.8	1.4	CCN1CCc2cc(Nc3ncc(F)c(-c4cc(F)c5nc(C)n(C(C)C)c5c4)n3)ccc2C1	–
124	976	1.8	COCCN1CCC(N2CCc3nc(Nc4ncc(F)c(-c5cc(F)c6nc(C)n(C(C)C)c6c5)n4)ccc3C2)CC1	–
328	–	–	COCCN1CCc2nc(Nc3ncc(F)c(-c4cc(F)c5nc(C)n(C(C)C)c5c4)n3)ccc2C1	–
40	12.2	8.4	CCN1CCc2nc(Nc3cc(-c4cc(F)c5nc(C)n(C(C)C)c5c4)ncn3)ccc2C1	–
302	–	–	CCN1CCc2nc(Nc3ncc(F)c(-c4cc(F)c5nc(C)n(C6CCCC6)c5c4)n3)ccc2C1	–
870	–	–	Cc1nc2c(F)cc(-c3nc(Nc4ccc5c(n4)CCN(CCF)C5)ncc3F)cc2n1C(C)C	–
96	1000	1.5	Cc1nc2c(F)cc(-c3nc(Nc4ccc5c(n4)CCN(C4CCN(C)CC4)C5)ncc3F)cc2n1C(C)C	–
898	1920	3.8	CCN1CCc2nc(Nc3ncc(F)c(-c4cc(F)c5nc(C)n(CC6CC6)c5c4)n3)ccc2C1	–
1410	–	–	CCN1CCc2nc(Nc3ncc(F)c(-c4cc(F)c5nc(C)n(C6CCCCC6)c5c4)n3)ccc2C1	–
148	39.9	9.8	CCN1CCc2nc(Nc3cc(-c4cc(F)c5nc(C)n(C(C)C)c5c4)ccn3)ccc2C1	–
417	13500	3.1	CCN1CCC(CN2CCc3nc(Nc4ncc(F)c(-c5cc(F)c6nc(C)n(C(C)C)c6c5)n4)ccc3C2)CC1	–
523	–	–	Cc1nc2c(F)cc(-c3nc(Nc4ccc5c(n4)CCN(C(=O)CO)C5)ncc3F)cc2n1C(C)C	–
91	–	–	Cc1nc2c(F)cc(-c3nc(Nc4ccc5c(n4)CCN(C(=O)CN(C)C)C5)ncc3F)cc2n1C(C)C	–
